Experimental data as given in patent EP1192182B1, “PITUITARY ADENYLATE CYCLASE ACTIVATING PEPTIDE (PACAP) RECEPTOR 3 (R3) AGONISTS AND THEIR PHARMACOLOGICAL METHODS OF USE” (priority 1999, dated 2001).
Starred links: 1 amine or outer side, 2 acyl side, 3 side chain; linkers in the order of their positions; H or OH if unused. Non-standard residues stand in square brackets, D forms with d. No end group written: not given here. Tyr(Me) = O-methyl-Tyr (CH3O-Y), COc1ccc(C[C@H](N[*:1])C(=O)[*:2])cc1; Nle = CCCC[C@H](N)C(=O)O

What was measured:
PACAP-R3 [1] = target: T1, PACAP-R3 (Homo sapiens, UniProt P41587); conditions: literature; cited from earlier work
T1 sequence (P41587 24-438): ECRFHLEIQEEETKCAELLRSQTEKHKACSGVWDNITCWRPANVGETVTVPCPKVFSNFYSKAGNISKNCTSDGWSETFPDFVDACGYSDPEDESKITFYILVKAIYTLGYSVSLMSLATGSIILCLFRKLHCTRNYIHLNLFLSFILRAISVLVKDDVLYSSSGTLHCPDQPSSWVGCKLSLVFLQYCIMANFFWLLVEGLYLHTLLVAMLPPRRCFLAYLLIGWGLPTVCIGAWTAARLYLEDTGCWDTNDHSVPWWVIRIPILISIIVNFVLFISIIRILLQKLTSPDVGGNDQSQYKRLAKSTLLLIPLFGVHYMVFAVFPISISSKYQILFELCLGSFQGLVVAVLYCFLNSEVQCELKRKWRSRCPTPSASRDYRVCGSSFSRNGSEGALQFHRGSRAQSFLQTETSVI

[2] = Peptide-induced elevation of plasma insulin after IVGTT; format: in vivo; conditions: one minute after IVGTT (0.4g/kg glucose), 1 nmole/kg peptide i.v., Wistar rats
Experimental: Wistar rats are fasted overnight (17 hrs) and then anesthetized with pentobarbital (0.1 ml/100 g BW). Glucose (0.4 g/kg dissolved in 1% human albumin-saline) +/- peptide (dissolved in 1% human albumin-saline) is injected intravenously into the tail vein. The rats are eye-bled 1 minute after the injection and 50-100ul of the plasma are assayed for insulin level with the Linco RIA kit (Linco Research, Inc., St. Charles, MO).
(§1) In accordance with the protocol of example 2 above, overnight fasted Wistar rats were anesthetized with pentobarital; i.v. injected with glucose ± peptide and eye bled after 1 minute. N=12 rats/group. […] The peptide or vehicle was given i.v. followed by a glucose load given i.p. in accordance with example 3. The plasma glucose was followed over the time period indicated.
Plasma insulin: Data are expressed as % of plasma insulin one minute after IVGTT (0.4g/kg glucose) with either saline, 0.1nmol/kg P51, P55, P60, P66 or 1 nmole/kg of the other peptides including peptides which are not part of the present invention in Wistar rats. Blood was drawn from the eye and insulin was measured with the rat insulin RIA kit (Linco Research, Inc, St. Charles, MO).

[3] = Intraperitoneal glucose tolerance test (IPGTT), plasma glucose; format: in vivo, Wistar rats; conditions: for Plasma Glucose (% of Basal) i.v.: 1 nmol/kg peptide i.v.; for glucose disposal in the rat: 1 nmole/kg dose, subcutaneous route, FIG. 7 legend
Experimental: Wistar rats are fasted overnight and then anesthetized with pentobarbital. The rats were eye-bled (zero time) and the peptide ( in 1% human albumin) was injected into the tail vein. Five minutes later, 1 g/kg of glucose (in saline) was injected intraperitoneally, and the rats were eye-bled after 15, 30 and 60 minutes. Plasma glucose levels were determined using the Technicon Axon autoanalyzer, Bayer Diagnosics division of Bayer Corporation, Tarrytown NY, operated using Method No. SM4-2143F90 "Glucose".
as §1
Wistar rats were fasted overnight and then anesthetized with Pentobarbital. The rats were eye-bled (zero time) and the peptide (in 1 % human albumin) was injected subcutaneously. Five minutes later, 1 g/kg of glucose (in saline) was injected intraperitoneally, and the rats were eye-bled after 30 minutes.
Plasma glucose: Data are expressed as % of vehicle of plasma glucose area under the curve after IPGTT (1 g/kg glucose) after treatment with 1 nmol/kg dose of the peptide. […] The present Inventors have shown for the first time that this is because the effects of R2 and R3 on glucose tend to cancel each other out. […] Therefore, R3-selectlvlty appears to be a desirable attribute for medicaments which are to be employed in achieving blood glucose reduction, for treatment of type 2 diabetes.

[4] = Heart rate in conscious dogs; conditions: i.v., AUC of first 10 minutes of heart rate change
Experimental: Beagle dogs were put into a sling where they have been trained to stand for up to 3 hours. The cuff of the heart rate monitor was placed around the tail of the dog.
Saline was injected into the cephalic vein and heart rate monitored every 2 minutes to establish a baseline. After 10 minutes, peptide, including peptides which are not part of the invention, was injected and heart rate monitored every 2 minutes for the next 20 minutes. If heart rate was normal at that time, a higher dose was given and heart rate monitored for 20 minutes.

[5] = in vivo; cited from earlier work
PACAP-R2 = target: T2, PACAP-R2 (Homo sapiens, UniProt P32241); assay: Cyclic AMP SPA on CHO cells transfected with PACAP-R2; format: cell-based; conditions: cAMP SPA, EC50 = concentration at which 50% of maximum PACAP27 activity is achieved, NA = no detectable activities
T2 construct: expressed in transfected cells; host or cells: CHO cells
T2 sequence (P32241 31-457): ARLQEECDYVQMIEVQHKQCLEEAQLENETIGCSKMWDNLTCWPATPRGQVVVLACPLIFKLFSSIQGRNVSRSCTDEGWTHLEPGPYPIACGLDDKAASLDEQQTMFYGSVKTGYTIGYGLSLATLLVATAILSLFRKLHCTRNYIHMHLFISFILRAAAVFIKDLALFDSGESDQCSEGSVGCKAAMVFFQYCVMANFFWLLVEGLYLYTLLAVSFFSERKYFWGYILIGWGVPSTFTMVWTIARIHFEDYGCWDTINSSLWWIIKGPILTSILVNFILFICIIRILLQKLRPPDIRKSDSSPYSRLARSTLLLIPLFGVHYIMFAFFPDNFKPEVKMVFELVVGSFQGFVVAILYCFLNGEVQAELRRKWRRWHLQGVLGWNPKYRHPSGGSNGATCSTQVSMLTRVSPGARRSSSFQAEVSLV
Experimental: (§2) CHO cells expressing the PACAP R3 were plated in 96-well plates (Costar) at 8 x 10^4 cell/well and grown at 37C for 24 hours in a MEM + nucleosides + glutamine (Giobco BRL), 10% FBS, 100 µg/ml Pen/Strep, 0.3 mg/ml glutamine, 1 mM HEPES, 0.5 mg/ml Geneticin (Gibco BRL). The media was removed and the plates were washed with PBS. The cells were incubated with a peptide, in Hepes-PBS-BSA with 0.4mg/mlSoybean Trypsin inhibitor, 0.5 mg/ml Bacitracin, 100uM IBMX, for 15 min at 37 C. Cyclic AMP in the ceii extracts was quantitated using the cAMP SPA direct screening assay system (Amersham Pharmacia Biotech Inc, Piscataway, NJ,). The peptides shown in Table 3 were assayed for cAMP activity.
(§3) EC50 is defined as the concentration of the polypeptide at which 50% of maximum PACAP27 activity is achieved. "NA" denotes no detectable activities. "R3 Selectivity" is derived from the ratio of EC50 at R2 versus EC50 at R3. […]

PACAP-R3 [6] = target: T1, PACAP-R3; assay: Cyclic AMP SPA on CHO cells expressing PACAP R3; format: cell-based; parameters: expressed in transfected cells; host or cells: CHO cells; conditions: cAMP SPA, CHO cells transfected with PACAP-R3; EC50 = concentration at which 50% of maximum PACAP27 activity is achieved; NA = no detectable activities
Experimental: as §2, §3

rat islets = assay: Insulin release from isolated rat islets; format: cell-based, Sprague-Dawley rats; conditions: peptide 10nM for 2hrs, 8mM glucose; % of [insulin] in 8mM glucose alone
Experimental: Sprague Dawley rats (275-320 g) were used as the source of donor islets. Briefly, the pancreas was filled with 10 ml of cold reconstituted Liberase RI (Boehringer Manheim), harvested and incubated with additional 5 ml enzyme solution in water bath for 30 minutes. Tissue suspension was washed twice with cold 10% FBS/Hanks buffer (Gibco), resuspended in 8 ml 25% ficoll (Sigma) and then layered with 5 ml each of 23%, 20% and 11 % ficoll. The islets in the 20% layer after centrifugation were removed, washed twice with cold 10% FBS/Hank buffer and resuspended in 10% FBS/RPMI 1640 media (Sigma).
Islet insulin release: Rat islets were isolated from Sprague-Dawley rats as described in example 1 and treated with either vehicle or specified peptide (10nM) for 2hrs. Insulin concentration in the medium was measured with the Linco rat insulin RIA kit. Glucose concentration in the medium was 8mM. The data are expressed as % of [insulin] in 8mM glucose alone. No polypeptide-induced Increases in insulin concentration were observed al 3 mM glucose; thus, the insulin releasing activity of these polypeptides are glucose-dependent. It should be noted that the following Table includes data for polypeptides which are not part of the present invention.

[7] = plasma glucose area under the curve after IPGTT (1 g/kg glucose), % of vehicle

## Ac-HSDAVFTEN(CH3O-Y)TKLRKQNIeAAKKYLNDLKK-NH2 (Ac-HSDAVFTEN[Tyr(Me)]TKLRKQ[Nle]AAKKYLNDLKK-NH2) [Peptide R3P4]
PACAP-R3 [1]
  PACAP-R3 selectivity: greater than 100 fold

## [K15, R16, L27]VIP(1-7)/GRF(8-27) [Peptide R2P1]
[2]
  Plasma Insulin (% of Basal): 216 % of Basal
[3]; IPGTT, 1 nmol/kg
  increases plasma glucose level: 14%
[3]; [7]
  Plasma Glucose (% of Basal) i.v.: 114 % of Basal
[4]
  potency in heart rate increase, fold less potent than PACAP27 or maxadilan: at least 10 fold

## HAEGTFTSDV SSYLEGQAAK EFIAWLKGR-NH2 [GLP-1]
[3]
  glucose disposal in the rat: enhance glucose disposal
[5]
  plasma half-life: a few minutes

## CC[C@H](C)[C@H](NC(=O)CNC(=O)[C@H](CC(=O)O)NC(=O)[C@H](CO)NC(=O)[C@@H](N)Cc1c[nH]cn1)C(=O)N[C@@H](Cc1ccccc1)C(=O)N[C@H](C(=O)N[C@@H](CC(=O)O)C(=O)N[C@@H](CO)C(=O)N[C@@H](CCCCN)C(=O)N[C@@H](CO)C(=O)N[C@@H](CCCNC(=N)N)C(=O)N[C@@H](Cc1ccc(O)cc1)C(=O)N[C@@H](CCCNC(=N)N)C(=O)N[C@@H](CCCCN)C(=O)N[C@@H](CCC(N)=O)C(=O)N[C@@H](CCSC)C(=O)N[C@@H](C)C(=O)N[C@H](C(=O)N[C@@H](CCCCN)C(=O)N[C@@H](CCCCN)C(=O)N[C@@H](Cc1ccc(O)cc1)C(=O)N[C@@H](CC(C)C)C(=O)N[C@@H](C)C(=O)N[C@@H](C)C(=O)N[C@H](C(=O)N[C@@H](CC(C)C)C(N)=O)C(C)C)C(C)C)[C@@H](C)O [PAC10]
PACAP-R2
  EC50: 110 nM
PACAP-R3 [6]
  EC50: 27 nM

## HSDAVFTDNYTRLRKQLAAKKYLNDIKK-NH2 [Peptide R3P13]
[2]
  Plasma Insulin (% of Basal): 465 % of Basal
[3]
  glucose disposal in the rat: enhance glucose disposal
[3]; 1 nmole/kg s.c., vehicle: 160 mg/dl above basal, Figure 7
  elevation of plasma glucose 30 minutes after IPGTT: significantly reduced
[3]; plasma glucose area under the curve after IPGTT (1 g/kg glucose), % of vehicle, 1 nmol/kg peptide s.c.
  Plasma Glucose (% of Basal) s.c.: 77 % of Basal
Rat islets
  Islet Insulin Release (% of Basal): 170 % of Basal

## Ac-HSDAVFTENYTKLRKQLAAKKYLNDLKKGGT-NH2 [Peptide R3P1]
[2]
  Plasma Insulin (% of Basal): 480 % of Basal
[3]; [7]
  Plasma Glucose (% of Basal) i.v.: 73 % of Basal
Rat islets
  Islet Insulin Release (% of Basal): 250 % of Basal

## HSDGIFTDSYSRYRKQLAAKKYLADVKK [Peptide R3P38]
PACAP-R2
  EC50: 17 nM
PACAP-R3 [6]
  EC50: 2.3 nM
